Our source for the TGI and GI50 values is PubChem BioAssay (NCI).

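These data come from cells grown in 96-well plates and exposed to compound for 48 hours at five concentrations. GI50: concentration for 50% inhibition of growth. TGI marks complete inhibition of growth.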

Among the test systems are OVCAR-3 ovarian; SR leukemia; SF-539 CNS; HCT-15 colon; K-562 leukemia; A549 NSCLC; SNB-75 CNS; OVCAR-8 ovarian; EKVX NSCLC; OVCAR-5 ovarian.
Holding throughout (test): DTP human tumour cell line panel, 48 h

What is called TGI is the concentration at which net growth stops. Regarding `CC(=O)NNc1nc(C)c(C(=O)NNC(=O)C(=O)Nc2ccccc2C#N)s1`, the TGI in the assay on OVCAR-3 ovarian, with SR leukemia, in the assay with SF-539 CNS, in the assay with HCT-15 colon, with K-562 leukemia and with A549 NSCLC was above 100 µM in each case. The TGI with SNB-75 CNS, with OVCAR-8 ovarian, in the assay on EKVX NSCLC and in the assay with OVCAR-5 ovarian was above 100 µM throughout.
`CCN(CC)CCn1ccc(=O)c2cc3c(=O)ccn(CCN(CC)CC)c3c(C)c21`: the TGI was found to be 23.6 µM in the assay with OVCAR-3 ovarian; 3.94 µM in the assay with SR leukemia; 24.2 µM with SF-539 CNS; 15.6 µM in the assay on HCT-15 colon; 26.8 µM in the assay with K-562 leukemia; 14.1 µM in the assay with A549 NSCLC. Moreover, the TGI is 22.7 µM in the assay with SNB-75 CNS, 15.5 µM in the assay with OVCAR-8 ovarian, 18.8 µM with EKVX NSCLC and 29.9 µM with OVCAR-5 ovarian.
`CCCCOc1ccc(NC(N)=Nc2ccc(Cl)cc2)cc1`: the TGI with OVCAR-3 ovarian was determined as 22.7 µM; in the assay with SR leukemia, 47.6 µM; with SF-539 CNS, 6.52 µM; in the assay on HCT-15 colon, 23.1 µM; with K-562 leukemia it was 11.6 µM; in the assay with A549 NSCLC, 10.3 µM. For the same molecule, the TGI in the assay on SNB-75 CNS came to 15.3 µM; in the assay with OVCAR-8 ovarian it was 25 µM; with EKVX NSCLC, 14.7 µM; with OVCAR-5 ovarian it was 19.9 µM.
As usually defined, the GI50 is the concentration at which growth is held to half of that of the control. On to `COC(=O)/C=C/C=C(c1ccccc1)c1ccccc1`, for which the GI50 is 2400 nM in the assay with OVCAR-3 ovarian; 4510 nM in the assay with SR leukemia; 5.17 µM with SF-539 CNS; 3.79 µM with HCT-15 colon; 4000 nM in the assay on K-562 leukemia; 5.02 µM in the assay with A549 NSCLC. Also, the GI50 was 2720 nM in the assay on SNB-75 CNS, 15000 nM in the assay with OVCAR-8 ovarian, 4.06 µM with EKVX NSCLC and 14 µM in the assay with OVCAR-5 ovarian. The TGI in the assay on OVCAR-3 ovarian is 8.24 µM; with SR leukemia, above 100 µM; with SF-539 CNS, 43.3 µM; with HCT-15 colon, 42.1 µM; in the assay on K-562 leukemia it was above 100 µM; with A549 NSCLC it was above 100 µM. In addition, the TGI in the assay on SNB-75 CNS was 53.1 µM; in the assay with OVCAR-8 ovarian, above 100 µM; in the assay with EKVX NSCLC, 32.8 µM; with OVCAR-5 ovarian, above 100 µM.
As for `COc1cccc(/C=C/C(=O)c2cccc(Nc3nc(Nc4ccccc4)nc(Nc4ccccc4)n3)c2)c1`, the GI50 in the assay on OVCAR-3 ovarian was 9160 nM; in the assay on SR leukemia, 1890 nM; with SF-539 CNS, 15.6 µM; in the assay on HCT-15 colon it was 9.59 µM; in the assay on K-562 leukemia it was 3960 nM; in the assay on A549 NSCLC, 30.9 µM. The GI50 with SNB-75 CNS was 11800 nM; in the assay with OVCAR-8 ovarian it was 9910 nM; in the assay with EKVX NSCLC, above 20.2 µM; in the assay with OVCAR-5 ovarian it was 26.8 µM. The TGI in the assay on OVCAR-3 ovarian was 33.5 µM; in the assay on SR leukemia, 9.13 µM; in the assay with SF-539 CNS it was 34.4 µM; in the assay with HCT-15 colon, above 100 µM; with K-562 leukemia, 45.8 µM; in the assay on A549 NSCLC it was above 100 µM. Further, the TGI in the assay on SNB-75 CNS is above 94.8 µM; with OVCAR-8 ovarian it was above 100 µM; in the assay on EKVX NSCLC, above 78.6 µM; in the assay on OVCAR-5 ovarian, above 86.3 µM.
In the case of `C=C1C(=O)O[C@H]2[C@H]1CC/C(COC(=O)NCc1ccccc1OC)=C\CC[C@@]1(C)O[C@@H]21`, the GI50 in the assay on OVCAR-3 ovarian was 872 nM; with SR leukemia it was 679 nM; in the assay with SF-539 CNS it was 1.53 µM; in the assay with HCT-15 colon, 1.04 µM; in the assay on K-562 leukemia, 821 nM; in the assay on A549 NSCLC it was 3.07 µM. Besides, the GI50 with SNB-75 CNS is 2440 nM; with OVCAR-8 ovarian it was 2450 nM; in the assay on EKVX NSCLC it was 1.98 µM; with OVCAR-5 ovarian, 2.29 µM. In addition, the TGI with OVCAR-3 ovarian stood at 2.42 µM; in the assay on SR leukemia, 5.19 µM; in the assay with SF-539 CNS, 3.04 µM; with HCT-15 colon, 2.47 µM; with K-562 leukemia it was 6.07 µM; with A549 NSCLC it was 11.8 µM. Further, the TGI in the assay on SNB-75 CNS worked out at 13.2 µM; with OVCAR-8 ovarian, 8.38 µM; in the assay with EKVX NSCLC, 6.39 µM; in the assay with OVCAR-5 ovarian, 5.44 µM.
For the molecule `COc1ccc2nc3cc([N+](=O)[O-])ccc3c(NCCCCCN(C)C)c2c1`, the GI50 in the assay with OVCAR-3 ovarian was 1410 nM; in the assay with SR leukemia, 159 nM; with SF-539 CNS, 0.319 µM; with HCT-15 colon it was 1.31 µM; with K-562 leukemia, 25.5 nM; with A549 NSCLC, 0.25 µM. Also, the GI50 is 247 nM in the assay on SNB-75 CNS, 214 nM in the assay with OVCAR-8 ovarian, 1.59 µM with EKVX NSCLC and 0.497 µM with OVCAR-5 ovarian. In addition, the TGI in the assay with OVCAR-3 ovarian was found to be 12.1 µM; with SR leukemia it was 14.1 µM; with SF-539 CNS, 1.66 µM; in the assay on K-562 leukemia, 0.353 µM; in the assay with A549 NSCLC, 1.15 µM; in the assay with SNB-75 CNS, 1.1 µM. Moreover, the TGI with OVCAR-8 ovarian came out at 1.32 µM; in the assay on EKVX NSCLC, 7.27 µM; in the assay on OVCAR-5 ovarian, 3.92 µM.
Regarding `COc1c(CCC[P+](c2ccccc2)(c2ccccc2)c2ccccc2)cc2c(c1OC)OCO2`, the GI50 with OVCAR-3 ovarian was 629 nM; with SR leukemia, 1070 nM; in the assay with SF-539 CNS, 2.1 µM; in the assay on HCT-15 colon it was 14.7 µM; in the assay on K-562 leukemia, 529 nM; in the assay with A549 NSCLC, 3.7 µM. For the same molecule, the GI50 is 1300 nM in the assay on SNB-75 CNS, 2660 nM in the assay on OVCAR-8 ovarian, 3.88 µM in the assay on EKVX NSCLC and 2.74 µM in the assay with OVCAR-5 ovarian. The TGI was 18 µM in the assay with OVCAR-3 ovarian; 15 µM in the assay with SR leukemia; 13.7 µM in the assay with SF-539 CNS; 71.1 µM in the assay with HCT-15 colon; above 100 µM with K-562 leukemia; 38.1 µM in the assay with A549 NSCLC. The TGI was 5.18 µM in the assay with SNB-75 CNS, above 100 µM with OVCAR-8 ovarian, 51.1 µM with EKVX NSCLC and 81.2 µM with OVCAR-5 ovarian.
As to `O=C([O-])c1ccccc1Nc1ccccn1.O=C([O-])c1ccccc1Nc1ccccn1.[Ni+2]`, the GI50 in the assay on OVCAR-3 ovarian is above 100000 nM; with SR leukemia, above 100000 nM; in the assay with SF-539 CNS, 72.4 µM; with HCT-15 colon it was above 100 µM; in the assay with K-562 leukemia, 49500 nM; with A549 NSCLC, above 100 µM. The GI50 was above 100000 nM in the assay on OVCAR-8 ovarian, 31.8 µM in the assay with EKVX NSCLC and 75.6 µM in the assay with OVCAR-5 ovarian. For the same molecule, the total growth inhibition concentration (TGI) with OVCAR-3 ovarian, in the assay on SR leukemia, with SF-539 CNS, with HCT-15 colon, in the assay on K-562 leukemia and in the assay on A549 NSCLC was above 100 µM each time. The TGI in the assay on OVCAR-8 ovarian, with EKVX NSCLC and in the assay with OVCAR-5 ovarian was above 100 µM in each case.
As for `CC(C)(C)C#CC1=C(Br)C(=O)OC1`, the GI50 was 935 nM with OVCAR-3 ovarian; above 100000 nM in the assay on SR leukemia; 2.74 µM in the assay on SF-539 CNS; 1.6 µM in the assay on HCT-15 colon; 841 nM with K-562 leukemia; 1.3 µM in the assay with A549 NSCLC. In addition, the GI50 in the assay on SNB-75 CNS was 37700 nM; in the assay with OVCAR-8 ovarian it was 2540 nM; with EKVX NSCLC it was 1.69 µM. Further, the TGI was 4.28 µM in the assay with OVCAR-3 ovarian; above 100 µM in the assay on SR leukemia; 11.1 µM with SF-539 CNS; above 22.3 µM in the assay with HCT-15 colon; 8.73 µM in the assay with A549 NSCLC; above 100 µM in the assay on SNB-75 CNS. The values for the TGI in the assay with OVCAR-8 ovarian, in the assay with EKVX NSCLC and in the assay with OVCAR-5 ovarian were 12.7 µM, 4.71 µM and 0.608 µM, respectively.
`O=C(c1ccc(F)cc1)c1cccc(C(=O)c2ccc(F)cc2)n1`: the TGI with OVCAR-3 ovarian was above 100 µM; in the assay on SR leukemia, above 100 µM; in the assay with SF-539 CNS, 56.3 µM; in the assay with HCT-15 colon, above 100 µM; in the assay on K-562 leukemia it was above 100 µM; with A549 NSCLC, above 100 µM. For the same molecule, the TGI in the assay on SNB-75 CNS is 22.7 µM; with OVCAR-8 ovarian, above 100 µM; in the assay with EKVX NSCLC, above 100 µM; with OVCAR-5 ovarian, above 100 µM.
Turning to `Cc1ccc(S(=O)(=O)N2CCSCCSCCSCCSCC2)cc1`, the TGI in the assay on OVCAR-3 ovarian is 60.7 µM; in the assay with SR leukemia it was above 100 µM; in the assay with SF-539 CNS, 43.7 µM; in the assay on HCT-15 colon it was above 100 µM; with K-562 leukemia it was above 100 µM; in the assay with A549 NSCLC, above 100 µM. Besides, the TGI is 29.8 µM in the assay with SNB-75 CNS, 48.4 µM in the assay with OVCAR-8 ovarian, above 89.9 µM in the assay on EKVX NSCLC and above 100 µM with OVCAR-5 ovarian.
Turning to `CCCCCCCCCCCCOC(=S)NCCCC`, the TGI in the assay on SR leukemia was determined as 42.7 µM; in the assay with SF-539 CNS, 48.5 µM; with HCT-15 colon, 37.2 µM; in the assay on K-562 leukemia, 41.3 µM; in the assay on SNB-75 CNS it was 95.1 µM; in the assay on OVCAR-8 ovarian it was 40.2 µM. In addition, the TGI in the assay with EKVX NSCLC came to 47.8 µM; in the assay on OVCAR-5 ovarian, 51.4 µM.
For `Nc1ccn(Cc2ccc(C34CC5CC(CC(C5)C3)C4)c(O)c2)c(=O)n1`, the GI50 in the assay with OVCAR-3 ovarian is 58900 nM; with SR leukemia it was above 100000 nM; in the assay on SF-539 CNS, 42 µM; in the assay with HCT-15 colon it was above 100 µM; with K-562 leukemia, 35300 nM; with SNB-75 CNS it was 24000 nM. Moreover, the GI50 in the assay on EKVX NSCLC was 93 µM; in the assay with OVCAR-5 ovarian it was above 100 µM. The TGI with OVCAR-3 ovarian was above 100 µM; in the assay with SR leukemia, above 100 µM; in the assay on SF-539 CNS it was above 100 µM; in the assay on HCT-15 colon, above 100 µM; in the assay with K-562 leukemia it was above 100 µM; with SNB-75 CNS it was 84 µM. Also, the TGI in the assay on EKVX NSCLC and with OVCAR-5 ovarian was above 100 µM each time.
